Test systems include COLO 205 colon; NCI-H460 lung; UACC-62 melanoma; MDA-MB-435; RXF 393 renal; CAKI-1 renal; UO-31 renal; OVCAR-5 ovarian; M14 melanoma; KM12 colon.
Holding throughout (test): inhibition of tumour cell growth, NCI panel, 48 h

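Assay format: 96-well plates, 48-hour exposure. The concentration for 50% growth inhibition is given as GI50. Definition used: TGI = concentration required for complete inhibition of growth.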

Consider twelve compounds from PubChem BioAssay (NCI).

As for `Oc1ccccc1-c1nn(CNc2cccc(Cl)c2)c(=S)o1`, the GI50 was 53.8 µM in the experiment with COLO 205 colon; 20.6 µM in the experiment with NCI-H460 lung; 41.5 µM with UACC-62 melanoma; 77.1 µM with MDA-MB-435; 82.4 µM with RXF 393 renal; 65.4 µM in the experiment with CAKI-1 renal. In addition, the GI50 with UO-31 renal was greater than 100 µM; with OVCAR-5 ovarian it was greater than 100 µM; in the experiment with M14 melanoma, 35.8 µM; in the experiment on KM12 colon, 37.2 µM. Moreover, the TGI in the experiment on COLO 205 colon, with NCI-H460 lung, with UACC-62 melanoma, in the experiment on MDA-MB-435, in the experiment with RXF 393 renal and in the experiment on CAKI-1 renal was greater than 100 µM in each case. Also, the TGI with UO-31 renal, with OVCAR-5 ovarian, in the experiment with M14 melanoma and in the experiment on KM12 colon was greater than 100 µM throughout.

As to `CC(C)=CCC[C@H](C)[C@@H]1CC[C@]2(C)C3CC[C@]4(OC4(C)C)C(CCCO)[C@]3(C)CC[C@@]12C` (stereo not given in full), the GI50 in the experiment with COLO 205 colon is 31.5 µM; with NCI-H460 lung, 23.7 µM; in the experiment with UACC-62 melanoma, 13.6 µM; in the experiment on MDA-MB-435, 22.6 µM; in the experiment on RXF 393 renal, 18.3 µM; in the experiment on CAKI-1 renal, 21.7 µM. Also, the GI50 was 33.5 µM in the experiment with UO-31 renal, 21 µM with OVCAR-5 ovarian, 32.1 µM with M14 melanoma and 22.5 µM in the experiment with KM12 colon. Also, the TGI with COLO 205 colon is greater than 100 µM; in the experiment on NCI-H460 lung it was 70.3 µM; in the experiment on UACC-62 melanoma it was 30.4 µM; with MDA-MB-435, 48.8 µM; in the experiment on RXF 393 renal, 37.6 µM; with CAKI-1 renal, 44.4 µM. The TGI in the experiment on UO-31 renal was greater than 100 µM; in the experiment with OVCAR-5 ovarian it was 47.1 µM; in the experiment on M14 melanoma it was greater than 100 µM; in the experiment with KM12 colon, 59.5 µM.

Take `COc1cc(O)c2c(O)c3c(c4c2c1[C@]1(C4)C(C)=CCCC1(C)C)[C@H](O)[C@@]1(O)CC(=O)C(C(N)=O)=C(O)[C@@]1(O)C3=O`: the TGI worked out at 0.24 µM in the experiment on COLO 205 colon; 0.664 µM with NCI-H460 lung; 1.95 µM with UACC-62 melanoma; 1.2 µM in the experiment on MDA-MB-435; 2.13 µM in the experiment on RXF 393 renal; 0.972 µM with CAKI-1 renal. The TGI with UO-31 renal came out at 1.27 µM; in the experiment with OVCAR-5 ovarian, 1.23 µM; in the experiment on M14 melanoma, 1.58 µM; in the experiment on KM12 colon, 1.24 µM.

Turning to `COc1cc(-c2nc(Nc3nc4ccccc4[nH]3)nc(N)c2C#N)cc(OC)c1OC`, the GI50 was 1.74 µM with COLO 205 colon; 1.77 µM with NCI-H460 lung; 4.65 µM in the experiment on UACC-62 melanoma; 0.0886 µM in the experiment with MDA-MB-435; 0.378 µM in the experiment on RXF 393 renal; 6.04 µM in the experiment with CAKI-1 renal. Further, the GI50 with UO-31 renal was 85.7 µM; in the experiment on OVCAR-5 ovarian, 27.8 µM; in the experiment on M14 melanoma, 2.34 µM; in the experiment on KM12 colon, 0.714 µM. In addition, the TGI in the experiment on COLO 205 colon is greater than 50.7 µM; in the experiment on NCI-H460 lung, greater than 54.2 µM; with UACC-62 melanoma, greater than 59.7 µM; in the experiment on MDA-MB-435, 16.7 µM; in the experiment on RXF 393 renal it was 23.7 µM; in the experiment on CAKI-1 renal, greater than 60.6 µM. In addition, the TGI is greater than 100 µM with UO-31 renal, greater than 86.4 µM in the experiment on OVCAR-5 ovarian, 36.5 µM with M14 melanoma and greater than 100 µM with KM12 colon.

As to `Cn1c2ccccc2c(=S)c2ccccc21`, the TGI with COLO 205 colon, in the experiment on NCI-H460 lung, in the experiment with UACC-62 melanoma, in the experiment with MDA-MB-435, with RXF 393 renal and in the experiment on CAKI-1 renal was greater than 100 µM throughout. The TGI with UO-31 renal, in the experiment with OVCAR-5 ovarian, in the experiment with M14 melanoma and with KM12 colon was greater than 100 µM in each case.

Take `CC1=CC(=NC(=O)CBr)C=C/C1=N\S(=O)(=O)c1ccccc1`: the GI50 in the experiment with COLO 205 colon was 5.96 µM; in the experiment with NCI-H460 lung, 15.1 µM; in the experiment with UACC-62 melanoma, 2.58 µM; with MDA-MB-435, 3.4 µM; in the experiment on RXF 393 renal, 1.77 µM; with CAKI-1 renal, 3.11 µM. The GI50 is 2.77 µM in the experiment with UO-31 renal, 2.65 µM in the experiment with OVCAR-5 ovarian, 3.26 µM in the experiment with M14 melanoma and 16.8 µM in the experiment with KM12 colon. The TGI in the experiment with COLO 205 colon is 21.2 µM; in the experiment with NCI-H460 lung, 34 µM; in the experiment with UACC-62 melanoma, 10.7 µM; with MDA-MB-435, 13.7 µM; with RXF 393 renal, 3.89 µM; in the experiment with CAKI-1 renal, 11.4 µM. Besides, the TGI turned out to be 12.6 µM in the experiment with UO-31 renal, 6.86 µM with OVCAR-5 ovarian, 13.9 µM with M14 melanoma and 31.2 µM in the experiment with KM12 colon.

As to `Cn1cncc1[C@@](N)(c1ccc(Cl)cc1)c1ccc2c(c1)c(-c1cccc(Cl)c1)cc(=O)n2C`, the GI50 was 2.31 µM in the experiment on COLO 205 colon; 1.97 µM with NCI-H460 lung; 0.42 µM with UACC-62 melanoma; 0.172 µM in the experiment with MDA-MB-435; 2.41 µM in the experiment with RXF 393 renal; 3.08 µM in the experiment on CAKI-1 renal. The GI50 was 1.97 µM in the experiment on UO-31 renal, 5.59 µM in the experiment on OVCAR-5 ovarian, 0.0818 µM in the experiment on M14 melanoma and 1.18 µM in the experiment with KM12 colon. The TGI with COLO 205 colon worked out at 9.09 µM; in the experiment on NCI-H460 lung, 11.9 µM; with UACC-62 melanoma it was 12.5 µM; in the experiment with MDA-MB-435 it was 1.93 µM; in the experiment on RXF 393 renal, 11.5 µM; in the experiment on CAKI-1 renal, 14.7 µM. The TGI in the experiment with UO-31 renal was determined as 6.97 µM; in the experiment on OVCAR-5 ovarian, 19.3 µM; with M14 melanoma, 11.1 µM; in the experiment with KM12 colon, 7.02 µM.

As for `COc1ccc2c(c1)C(=O)/C(=C/c1cccc(OCC(=O)Nc3nc4c(s3)CCCC4)c1)O2`, the GI50 was 0.729 µM in the experiment with COLO 205 colon; 3.48 µM in the experiment with NCI-H460 lung; 5.23 µM in the experiment on UACC-62 melanoma; 2.59 µM in the experiment with MDA-MB-435; 0.583 µM with RXF 393 renal; 0.383 µM in the experiment with CAKI-1 renal. Further, the GI50 is 0.0544 µM with UO-31 renal, 1.69 µM in the experiment with OVCAR-5 ovarian, 1.81 µM in the experiment on M14 melanoma and 0.72 µM in the experiment with KM12 colon. Further, the TGI in the experiment on COLO 205 colon was found to be 2.02 µM; with NCI-H460 lung, 13.4 µM; with UACC-62 melanoma it was 18.4 µM; with MDA-MB-435, 9.42 µM; with RXF 393 renal, 1.58 µM; in the experiment with CAKI-1 renal, 0.804 µM. In addition, the TGI in the experiment on UO-31 renal stood at 0.101 µM; with OVCAR-5 ovarian, 3.61 µM; with M14 melanoma, 4.51 µM; in the experiment on KM12 colon, 4.09 µM.

On to `Cn1cc(C2=C(c3cccc4ccccc34)C(=O)NC2=O)c2ccccc21`, for which the GI50 with COLO 205 colon was 7.23 µM; in the experiment with NCI-H460 lung, 8.2 µM; in the experiment with UACC-62 melanoma, 8.33 µM; in the experiment with MDA-MB-435, 6.06 µM; in the experiment with RXF 393 renal, 4.41 µM; with CAKI-1 renal, 5.31 µM. Moreover, the GI50 in the experiment on UO-31 renal was 7.38 µM; with OVCAR-5 ovarian, 12.8 µM; in the experiment with M14 melanoma, 11.5 µM; in the experiment with KM12 colon, 7.3 µM. Further, the TGI was greater than 22.9 µM in the experiment with COLO 205 colon; greater than 25 µM with NCI-H460 lung; greater than 25 µM with UACC-62 melanoma; greater than 25 µM with MDA-MB-435; 9.93 µM in the experiment with RXF 393 renal; greater than 22.9 µM with CAKI-1 renal. Besides, the TGI in the experiment with UO-31 renal was greater than 25 µM; with OVCAR-5 ovarian it was greater than 25 µM; in the experiment on M14 melanoma, greater than 25 µM; in the experiment on KM12 colon, greater than 22.6 µM.

On to `COc1cccc(C2c3cc4c(cc3OC(C)(O)C2C)OCO4)c1O` (stereo not given), for which the TGI in the experiment with COLO 205 colon was 6.15 µM; in the experiment on NCI-H460 lung, 30.6 µM; with UACC-62 melanoma, 31.1 µM; in the experiment with MDA-MB-435, greater than 100 µM; in the experiment with RXF 393 renal, 34.1 µM; in the experiment with CAKI-1 renal it was 15.7 µM. Also, the TGI is 52.6 µM in the experiment on UO-31 renal, greater than 100 µM in the experiment with OVCAR-5 ovarian, 24.2 µM in the experiment on M14 melanoma and 36.6 µM with KM12 colon.

On to `O=C(Nc1ccccc1O)c1cccc(NC2=C(Cl)C(=O)N(Cc3ccccc3)C2=O)c1`, for which the GI50 in the experiment with COLO 205 colon was 13.2 µM; in the experiment with NCI-H460 lung, 4.22 µM; with UACC-62 melanoma, 2.33 µM; with MDA-MB-435, 6.03 µM; in the experiment with RXF 393 renal it was 1.89 µM; in the experiment on CAKI-1 renal, 5.12 µM. Further, the GI50 is 8.53 µM with UO-31 renal, 13.4 µM with OVCAR-5 ovarian, 4.35 µM with M14 melanoma and 12.9 µM in the experiment with KM12 colon. Besides, the TGI with COLO 205 colon was determined as 40 µM; with NCI-H460 lung, 14.9 µM; with UACC-62 melanoma, 6.79 µM; with MDA-MB-435, 17.7 µM; in the experiment on RXF 393 renal, 5.28 µM; in the experiment on CAKI-1 renal, 12.7 µM. The TGI with UO-31 renal worked out at 25.1 µM; with OVCAR-5 ovarian, 27.7 µM; in the experiment with M14 melanoma, 11.3 µM; in the experiment on KM12 colon, 26.6 µM.

Turning to `Cn1cc(-c2nc(-c3c[nH]c4ncccc34)cs2)c2cc(F)ccc21`, the GI50 in the experiment on COLO 205 colon was 2.69 µM; in the experiment on NCI-H460 lung, 1.89 µM; in the experiment with UACC-62 melanoma, 3.65 µM; in the experiment with MDA-MB-435, 1.12 µM; in the experiment with RXF 393 renal, 2.49 µM; in the experiment on CAKI-1 renal, 2.2 µM. In addition, the GI50 is 2.06 µM in the experiment on UO-31 renal, 1.25 µM with OVCAR-5 ovarian, 2.93 µM with M14 melanoma and 0.83 µM in the experiment with KM12 colon. The TGI with COLO 205 colon was 8.52 µM; in the experiment on NCI-H460 lung it was 6.72 µM; in the experiment with UACC-62 melanoma, 17.2 µM; in the experiment on MDA-MB-435, 4.88 µM; with RXF 393 renal, 9.14 µM; in the experiment on CAKI-1 renal, 8.44 µM. Further, the TGI came to 8.12 µM in the experiment with UO-31 renal, 6.63 µM in the experiment with OVCAR-5 ovarian, 9.74 µM in the experiment with M14 melanoma and 5.16 µM in the experiment with KM12 colon.
